# How the values were obtained:
# Format in all cases: cell-based
# TOV-21G = assay: Cell viability analysis (WST-1), TOV-21G; conditions: Table 4, repeated experiments, drug 10 μM; for viability at 10 µM: Homo sapiens, TOV21G, 72 h, read-out: survival rate (viability) of cancer cells, TOV-21G
# Procedure, shortened: (§1)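 Absorbance at OD450 nm after WST-1 incubation gave the survival rate. Cells (3000/well) were exposed to drug at 10 μM for 72 hours, then given WST-1 diluted 9:1 in medium for 30 to 90 minutes at 37° C.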
# cancer cell lines = assay: Growth inhibitory effects on the panel of cancer cell lines; conditions: drug 10 μM, 72 hours, WST-1
# Source text: Subculture the different types of cancer cells.
# For cell viability analysis, the cardiovascular drugs include peripheral vasodilator reaming enhancer, angiotensin converting agent inhibitor, hypotension and shock therapeutic agent, diuretic, antiarrhythmic agent, antiarralciton drug, antihypertensive agent, anticoagulant thrombolytic agent, cardiac tonic, intravenous (hemorrhoids) therapeutic agent, are used to test the inhibition effect of cancer cell.
# BCC = assay: Cell viability analysis (WST-1), BCC; conditions: Table 4, repeated experiments, drug 10 μM; for viability at 10 µM: BCC, 72 h, read-out: survival rate (viability) of cancer cells, BCC
# SAS = assay: Cell viability analysis (WST-1), SAS; conditions: Table 4, repeated experiments, drug 10 μM; for viability at 10 µM: 72 h, read-out: survival rate (viability) of cancer cells, SAS
# Procedure, shortened: as §1
# AsPC-1 = assay: Cell viability analysis (WST-1), AsPC-1; conditions: Table 4, repeated experiments, drug 10 μM; for viability at 10 µM: Homo sapiens, ASPC1, 72 h, read-out: survival rate (viability) of cancer cells, AsPC-1
# Procedure, shortened: as §1
# [1] = tested on: LoVo (Colorectal Adenocarcinoma); assay: Cell viability analysis (WST-1), LoVo; conditions: Table 4, repeated experiments, drug 10 μM; for viability at 10 µM: Homo sapiens, LoVo, 72 h, WST-1, read-out: survival rate (viability) of cancer cells, LoVo
# [2] = tested on: A549 (Lung Adenocarcinoma); assay: Cell viability analysis (WST-1), A549; conditions: Table 4, repeated experiments, drug 10 μM; for viability at 10 µM: Homo sapiens, A549, 72 h, WST-1, read-out: survival rate (viability) of cancer cells, A549
# NIH-OVCAR-3 = assay: Cell viability analysis (WST-1), NIH-OVCAR-3; conditions: Table 4, repeated experiments, drug 10 μM; for viability at 10 µM: Homo sapiens, OVCAR-3, 72 h, read-out: survival rate (viability) of cancer cells, NIH-OVCAR-3
# Procedure, shortened: as §1
# [3] = tested on: A375 (Amelanotic Melanoma); assay: Cell viability analysis (WST-1), A375; conditions: Table 4, repeated experiments, drug 10 μM; for viability at 10 µM: Homo sapiens, A-375, 72 h, WST-1, read-out: survival rate (viability) of cancer cells, A375
# [4] = tested on: MKN-45 (Gastric Adenocarcinoma); assay: Cell viability analysis (WST-1), MKN-45; conditions: Table 4, repeated experiments, drug 10 μM; for viability at 10 µM: Homo sapiens, MKN-45, 72 h, WST-1, read-out: survival rate (viability) of cancer cells, MKN-45
# [5] = tested on: TSGH-8301 (Urinary Bladder Carcinoma); assay: Cell viability analysis (WST-1), TSGH-8301; conditions: Table 4, repeated experiments, drug 10 μM; for viability at 10 µM: 72 h, WST-1, read-out: survival rate (viability) of cancer cells, TSGH-8301
# BxPC-3 = assay: Cell viability analysis (WST-1), BxPC-3; conditions: Table 4, repeated experiments, drug 10 μM; for viability at 10 µM: Homo sapiens, BXPC-3, 72 h, read-out: survival rate (viability) of cancer cells, BxPC-3
# Procedure, shortened: as §1
# [6] = tested on: HCT116 (Colorectal Carcinoma); assay: Cell viability analysis (WST-1), HCT116; conditions: Table 4, repeated experiments, drug 10 μM; for viability at 10 µM: Homo sapiens, HCT-116, 72 h, WST-1, read-out: survival rate (viability) of cancer cells, HCT116
# Hep3B = assay: Cell viability analysis (WST-1), Hep3B; conditions: Table 4, repeated experiments, drug 10 μM; for viability at 10 µM: Homo sapiens, Hep3B, 72 h, read-out: survival rate (viability) of cancer cells, Hep3B
# Procedure, shortened: as §1
# C-33A = assay: Cell viability analysis (WST-1), C-33A; conditions: Table 4, repeated experiments, drug 10 μM; for viability at 10 µM: Homo sapiens, C-33-A, 72 h, read-out: survival rate (viability) of cancer cells, C-33A
# Procedure, shortened: as §1
# T24 = assay: Cell viability analysis (WST-1), T24; conditions: Table 4, repeated experiments, drug 10 μM; for viability at 10 µM: Homo sapiens, T-24, 72 h, read-out: survival rate (viability) of cancer cells, T24
# Procedure, shortened: as §1
# [7] = tested on: HepG2 (Hepatocellular Carcinoma); assay: Cell viability analysis (WST-1), HepG2; conditions: Table 4, repeated experiments, drug 10 μM; for viability at 10 µM: Homo sapiens, HepG2, 72 h, WST-1, read-out: survival rate (viability) of cancer cells, HepG2
# MDA-MB231 = assay: Cell viability analysis (WST-1), MDA-MB231; conditions: Table 4, repeated experiments, drug 10 μM; for viability at 10 µM: Homo sapiens, MDA-MB-231, 72 h, read-out: survival rate (viability) of cancer cells, MDA-MB231
# [8] = tested on: PC3 (Prostate Adenocarcinoma); assay: Cell viability analysis (WST-1), PC3; conditions: Table 4, repeated experiments, drug 10 μM; for viability at 10 µM: 72 h, WST-1, read-out: survival rate (viability) of cancer cells, PC-3
# U2OS = assay: Cell viability analysis (WST-1), U2OS; conditions: Table 4, repeated experiments, drug 10 μM; for viability at 10 µM: Homo sapiens, U2OS, 72 h, read-out: survival rate (viability) of cancer cells, U2OS
# Procedure, shortened: as §1
# [9] = tested on: H1650 (Lung Adenocarcinoma); assay: Cell viability analysis (WST-1), H1650; conditions: Table 4, repeated experiments, drug 10 μM; for viability at 10 µM: Homo sapiens, NCI-H1650, 72 h, WST-1, read-out: survival rate (viability) of cancer cells, H1650
# [10] = tested on: HeLa (Cervix Adenocarcinoma); assay: Cell viability analysis (WST-1), HeLa; conditions: Table 4, repeated experiments, drug 10 μM; for viability at 10 µM: Homo sapiens, HeLa, 72 h, WST-1, read-out: survival rate (viability) of cancer cells, HeLa
# [11] = tested on: AGS (Gastric Adenocarcinoma); assay: Cell viability analysis (WST-1), AGS; conditions: Table 4, repeated experiments, drug 10 μM; for viability at 10 µM: 72 h, WST-1, read-out: survival rate (viability) of cancer cells, AGS
# 786-O = assay: Cell viability analysis (WST-1), 786-O; conditions: Table 4, repeated experiments, drug 10 μM; for viability at 10 µM: Homo sapiens, 786-0, 72 h, read-out: survival rate (viability) of cancer cells, 786-O
# Procedure, shortened: as §1
# [12] = tested on: MCF7 (Mammary Gland, Adenocarcinoma); assay: Cell viability analysis (WST-1), MCF7; conditions: Table 4, repeated experiments, drug 10 μM; for viability at 10 µM: Homo sapiens, MCF7, 72 h, WST-1, read-out: survival rate (viability) of cancer cells, MCF-7
smiles,measurement,setting,value
"CCC[C@H](N[C@@H](C)C(=O)N1[C@H](C(=O)O)C[C@@H]2CCCC[C@@H]21)C(=O)OCC [Perindopril Erbumine (Aceon), Perindopril Erbumine]",viability at 10 µM,TOV-21G,71.2%
same,inhibition effect on different cancer cell lines (in words),cancer cell lines,significant inhibition effect
same,viability at 10 µM,BCC,58.7%
same,viability at 10 µM,SAS,52.5%
same,viability at 10 µM,AsPC-1,64.2%
same,viability at 10 µM,[1],83.5%
same,viability at 10 µM,[2],71.9%
same,viability at 10 µM,NIH-OVCAR-3,79.6%
same,viability at 10 µM,[3],83.2%
same,viability at 10 µM,[4],73.8%
same,viability at 10 µM,[5],105%
same,viability at 10 µM,BxPC-3,50%
same,viability at 10 µM,[6],65%
same,viability at 10 µM,Hep3B,99.5%
same,viability at 10 µM,C-33A,90.9%
same,viability at 10 µM,T24,87.9%
same,viability at 10 µM,[7],99.4%
same,viability at 10 µM,MDA-MB231,63.8%
same,viability at 10 µM,[8],81.1%
same,viability at 10 µM,U2OS,74%
same,viability at 10 µM,[9],78.6%
same,viability at 10 µM,[10],66.7%
same,viability at 10 µM,[11],87.1%
same,viability at 10 µM,786-O,86.2%
same,viability at 10 µM,[12],75.6%
"COc1ccc(-c2nc3ccc(C4=NNC(=O)CC4C)cc3[nH]2)cc1 (stereo not drawn) [Pimobendan (Vetmedin), Pimobendan]",viability at 10 µM,TOV-21G,70.7%
same,inhibition effect on different cancer cell lines (in words),cancer cell lines,significant inhibition effect
same,viability at 10 µM,BCC,49.6%
same,viability at 10 µM,SAS,51.1%
same,viability at 10 µM,AsPC-1,69.3%
same,viability at 10 µM,[1],66.7%
same,viability at 10 µM,[2],58.3%
same,viability at 10 µM,NIH-OVCAR-3,74.7%
same,viability at 10 µM,[3],44.4%
same,viability at 10 µM,[4],65.2%
same,viability at 10 µM,[5],59.4%
same,viability at 10 µM,BxPC-3,51.9%
same,viability at 10 µM,[6],53.6%
same,viability at 10 µM,Hep3B,94.8%
same,viability at 10 µM,C-33A,62.8%
same,viability at 10 µM,T24,74.2%
same,viability at 10 µM,[7],87.2%
same,viability at 10 µM,MDA-MB231,75%
same,viability at 10 µM,[8],69.5%
same,viability at 10 µM,U2OS,56.6%
same,viability at 10 µM,[9],77.8%
same,viability at 10 µM,[10],34%
same,viability at 10 µM,[11],60.8%
same,viability at 10 µM,786-O,39.6%
same,viability at 10 µM,[12],53.9%
"O=C([O-])C[C@H](O)C[C@H](O)/C=C/c1c(C2CC2)nc2ccccc2c1-c1ccc(F)cc1.O=C([O-])C[C@H](O)C[C@H](O)/C=C/c1c(C2CC2)nc2ccccc2c1-c1ccc(F)cc1.[Ca+2] [Pitavastatin calcium (Livalo), Pitavastatin calcium]","survival rate (viability) of cancer cells, TOV-21G",TOV-21G; 72 hours,21.79
same,inhibition effect on different cancer cell lines (in words),cancer cell lines,significant inhibition effect
same,"survival rate (viability) of cancer cells, BCC",BCC; 72 hours,26.77
same,"survival rate (viability) of cancer cells, SAS",SAS; 72 hours,38.0374
same,"survival rate (viability) of cancer cells, AsPC-1",AsPC-1; 72 hours,51.36
same,"survival rate (viability) of cancer cells, LoVo","[1]; 72 hours, WST-1",65.15
same,"survival rate (viability) of cancer cells, A549","[2]; 72 hours, WST-1",89.44
same,"survival rate (viability) of cancer cells, NIH-OVCAR-3",NIH-OVCAR-3; 72 hours,61.41
same,"survival rate (viability) of cancer cells, A375","[3]; 72 hours, WST-1",22.09
same,"survival rate (viability) of cancer cells, MKN-45","[4]; 72 hours, WST-1",61.3
same,"survival rate (viability) of cancer cells, TSGH-8301","[5]; 72 hours, WST-1",48.92
same,"survival rate (viability) of cancer cells, BxPC-3",BxPC-3; 72 hours,59.78
same,"survival rate (viability) of cancer cells, HCT116","[6]; 72 hours, WST-1",35.07
same,"survival rate (viability) of cancer cells, Hep3B",Hep3B; 72 hours,96.34
same,"survival rate (viability) of cancer cells, C-33A",C-33A; 72 hours,74.75
same,"survival rate (viability) of cancer cells, T24",T24; 72 hours,52.63
same,"survival rate (viability) of cancer cells, HepG2","[7]; 72 hours, WST-1",98.06
same,"survival rate (viability) of cancer cells, MDA-MB231",MDA-MB231; 72 hours,39.0358
same,"survival rate (viability) of cancer cells, PC-3","[8]; 72 hours, WST-1",27.54
same,"survival rate (viability) of cancer cells, U2OS",U2OS; 72 hours,43.44
same,"survival rate (viability) of cancer cells, H1650","[9]; 72 hours, WST-1",49.9822
same,"survival rate (viability) of cancer cells, HeLa","[10]; 72 hours, WST-1",36.91
same,"survival rate (viability) of cancer cells, AGS","[11]; 72 hours, WST-1",19.17
same,"survival rate (viability) of cancer cells, 786-O",786-O; 72 hours,16.46
same,"survival rate (viability) of cancer cells, MCF-7","[12]; 72 hours, WST-1",83.57

# Source: patent US20170304388A1, “NEW INDICATION OF CARDIOVASCULAR DRUGS FOR PREPARATION OF CANCER INHIBITION PHARMACEUTICAL COMPOSITION” (LAUNX BIOMEDICAL CO., LTD., priority 2014, published 2017)
